Measurements: US10125135B2, “Chemical compounds” (AstraZeneca AB, priority 2016, dated 2018)

Columns and labels:
[1] = target: ERα receptor in MCF-7 human ductal carcinoma breast cell line (Homo sapiens (Human), UniProt P03372); test: MCF-7 ER down regulation assay (immuno-fluorescence); type: cell-based; settings: MCF-7 cells; for DC50: 18-22 hours incubation, read-out: ER down regulation IC50 value; for % downregulation (in brackets) in ER down regulation assay: >90% unless otherwise stated
Description: MCF-7 ER Down Regulation Assay
The ability of compounds to down-regulate Estrogen Receptor (ER) numbers was assessed in a cell based immuno-fluorescence assay using the MCF-7 human ductal carcinoma breast cell line. MCF-7 cells were revived directly from a cryovial (approx 5×10^6 cells) in Assay Medium (phenol red free Dulbecco's Modified Eagle's medium (DMEM) (Sigma D5921) containing 2mM L-Glutamine and 5% (v/v) Charcoal/Dextran treated foetal calf serum. Cells were syringed once using a sterile 18 G×1.5 inch (1.2×40 mm) broad gauge needle and cell density was measured using a Coulter Counter (Beckman). Cells were further diluted in Assay Medium to a density of 3.75×10^4 cells per mL and 40 μL per well added to transparent bottomed, black, tissue culture treated 384 well plates (Costar, No. 3712) using a Thermo Scientific Matrix WellMate or Thermo Multidrop. Following cell seeding, plates were incubated overnight at 37° C., 5% CO2 (Liconic carousel incubator). Test data was generated using the LabCyte Echo™ model 555 compound reformatter which is part of an automated workcell (Integrated Echo 2 workcell). 10 mM compound stock solutions of the test compounds were used to generate a 384 well compound dosing plate (Labcyte P-05525-CV1). […] 40 μΛ of DMSO added to wells in row P on the source plate allow for DMSO normalisation across the dose range. To dose the control wells 40 μL of DMSO was added to row O1 and 40 μL of 100 μM fulvestrant in DMSO was added to row O3 on the compound source plate. […] Compounds were dispensed onto the cell plates with a compound source plate prepared as above producing a 12 pt duplicate 3 μM to 3 pM dose range with 3 fold dilutions and one final 10 fold dilution using the Integrated Echo 2 workcell. […] Cells were fixed at room temperature for 20 mins before being washed two times with 250 μL PBS/Proclin (PBS with a Biocide preservative) using a BioTek platewasher, 40 μL of PBS/Proclin was then added to all wells and the plates stored at 4° C. The fixing method described above was carried out on the Integrated Echo 2 workcell. Immunostaining was performed using an automated AutoElisa workcell. The PBS/Proclin was aspirated from all wells and the cells permeabilised with 40 μL PBS containing 0.5% Tween™ 20 (v/v) for 1 hour at room temperature. The plates were washed three times in 250 μL of PBS/0.05% (v/v) Tween 20 with Proclin (PBST with a Biocide preservative) and then 20 μL of ERα (SP1) Rabbit monoclonal antibody (Thermofisher) 1:1000 in PBS/Tween™/3% (w/v) Bovine Serum Albumin was added. The plates were incubated overnight at 4° C. (Liconic carousel incubator) and then washed three times in 250 μL of PBS/0.05% (v/v) Tween™ 20 with Proclin (PBST). The plates were then incubated with 20 μL/well of a goat anti-rabbit IgG AlexaFluor 594 or goat anti-rabbit AlexaFluor 488 antibody (Molecular Probes) with Hoechst at 1:5000 in PBS/Tween™/3% (w/v) Bovine Serum Albumin for lhour at room temperature. The plates were then washed three times in 250 μL of PBS/0.05% (v/v) Tween™ 20 with Proclin (PBST with a Biocide preservative). 20 μL of PBS was added to each well and the plates covered with a black plate seal and stored at 4° C. before being read. Plates were read using a Cellomics Arrayscan reading the 594 nm (24 hr time point) or 488 nm (5 hr timepoint) fluorescence to measure the ERα receptor level in each well. The mean total intensity was normalized for cell number giving the total intensity per cell.

[2] = Human hepatocyte assay (metabolic stability); type: in vitro ADME; settings: human hepatocytes, 37° C., 1.0×10^6 viable cells/mL; read-out: Clint (in vitro intrinsic clearance)
Description: The metabolic stability of compounds in human hepatocytes was assessed using the following protocol: • 1. Prepare 10 mM stock solutions of compound and control compounds in appropriate solvent (DMSO). Place incubation medium (L-15Medium) in a 37° C. water bath, and allow warming for at least 15 minutes prior to use. • 2. Add 80 μL of acetonitrile to each well of the 96-well deep well plate (quenching plate). • 3. In a new 96-well plate, dilute the 10 mM test compounds and the control compounds to 100 μM by combining 198 μL of acetonitrile and 2 μL of 10 mM stock. • 4. Remove a vial of cryopreserved (less than −150° C.) human hepatocytes (LiverPool™ 10 Donor Human hepatocytes obtained from Celsis IVT. Chicago, Ill. (Product No. S01205)) from storage, ensuring that vials remain at cryogenic temperatures until thawing process ensues. As quickly as possible, thaw the cells by placing the vial in a 37° C. water bath and gently shaking the vials. Vials should remain in water bath until all ice crystals have dissolved and are no longer visible. After thawing is completed, spray vial with 70% ethanol, transfer the vial to a bio-safety cabinet. • 5. Open the vial and pour the contents into the 50 mL conical tube containing thawing medium. Place the 50 mL conical tube into a centrifuge and spin at 100 g for 10 minutes. […] Using Cellometer® Vision, count cells and determine the viable cell density. Cells with poor viability (<80% viability) are not acceptable for use. Dilute cells with incubation medium to a working cell density of 1.0×10^6 viable cells/mL. • 7. Transfer 247.5 μL of hepatocytes into each well of a 96-well cell culture plate. Place the plate on Eppendorf Thermomixer Comfort plate shaker to allow the hepatocytes to warm for 10 minutes. • 8. Add 2.5 μL of 100 μM test compound or control compounds into an incubation well containing cells, mix to achieve a homogenous suspension at 0.5 min, which when achieved, will define the 0.5 min time point. At the 0.5 min time, transfer 20 μL incubated mixture to wells in a “Quenching plate” followed by vortexing. • 9. Incubate the plate at 37° C. at 900 rpm on an Eppendorf Thermomixer Comfort plate shaker. At 5, 15, 30, 45, 60, 80, 100 and 120 min, mix the incubation system and transfer samples of 20 μL incubated mixture at each time point to wells in a separate “Quenching plate” followed by vortexing. • 10. Centrifuge the quenching plates for 20 minutes at 4,000 rpm. 4 different compounds are pooled into one cassette and used for LC/MS/MS analysis.
All calculations are carried out using Microsoft Excel. Peak areas are determined from extracted ion chromatograms. In vitro intrinsic clearance (in vitro Clint, in μL/min/10^6 cells) of parent compound is determined by regression analysis of the Ln percent parent disappearance vs. time curve. The in vitro intrinsic clearance (in vitro Clint, in μL/min/10^6 cells) is determined from the slope value using the following equation and is shown in Table C:
V=incubation volume (0.25 mL);
N=number of hepatocytes per well (0.25×10 ^6 cells).

Sequence of ERα receptor in MCF-7 human ductal carcinoma breast cell line (P03372 whole entry): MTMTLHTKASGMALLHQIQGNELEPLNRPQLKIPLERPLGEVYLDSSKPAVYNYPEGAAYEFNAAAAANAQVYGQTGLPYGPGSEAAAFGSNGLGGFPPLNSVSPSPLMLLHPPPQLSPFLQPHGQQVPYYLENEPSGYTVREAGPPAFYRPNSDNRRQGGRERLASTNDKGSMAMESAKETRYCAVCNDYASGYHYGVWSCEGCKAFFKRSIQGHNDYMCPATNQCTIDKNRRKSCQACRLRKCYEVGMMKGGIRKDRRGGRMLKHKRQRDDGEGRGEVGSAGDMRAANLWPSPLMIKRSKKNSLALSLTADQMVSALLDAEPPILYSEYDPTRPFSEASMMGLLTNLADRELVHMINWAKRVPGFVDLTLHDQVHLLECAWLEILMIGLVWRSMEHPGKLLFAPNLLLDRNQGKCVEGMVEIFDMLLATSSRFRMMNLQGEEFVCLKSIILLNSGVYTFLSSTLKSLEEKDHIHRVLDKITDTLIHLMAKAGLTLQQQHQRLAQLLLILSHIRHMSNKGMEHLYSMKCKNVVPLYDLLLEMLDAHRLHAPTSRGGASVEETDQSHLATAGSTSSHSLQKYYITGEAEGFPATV

SMILES	DC50 [1] [nM]	% downregulation (in brackets) in ER down regulation assay [1] [%]	hepatocyte CLint at 1 µM [2] [µL/min/1e6 cells]
C[C@@H]1Cc2c(ccc3[nH]ncc23)[C@@H](c2c(F)cc(NCCN3CC(CF)C3)cc2F)N1CC(C)(C)F [Example 47, 3,5-difluoro-4-((6S,8R)-7-(2-fluoro-2-methylpropyl)-8-methyl-6,7,8,9-tetrahydro-3H-pyrazolo[4,3-f]isoquinolin-6-yl)-N-(2-(3-(fluoromethyl)azetidin-1-yl)ethyl)aniline]	0.28	86	8
CC(C)(F)CN1[C@H](c2c(F)cc(OCCN3CC(CF)C3)cc2F)c2ccc3[nH]ncc3c2C[C@H]1C(F)F [Example 3, (6S,8S)-6-(2,6-difluoro-4-(2-(3-(fluoromethyl)azetidin-1-yl)ethoxy)phenyl)-8-(difluoromethyl)-7-(2-fluoro-2-methylpropyl)-6,7,8,9-tetrahydro-3H-pyrazolo[4,3-f]isoquinoline]	0.16		16
CC(C)CN1[C@H](c2c(F)cc(OCCN3CC(CF)C3)cc2F)c2ccc3[nH]ncc3c2C[C@H]1C [Example 33, (6S,8R)-6-(2,6-difluoro-4-(2-(3-(fluoromethyl)azetidin-1-yl)ethoxy)phenyl)-7-isobutyl-8-methyl-6,7,8,9-tetrahydro-3H-pyrazolo[4,3-f]isoquinoline]	0.21		9
CC(C)(F)CN1[C@H](C(F)F)Cc2c(ccc3[nH]ncc23)[C@@]1(C)c1c(F)cc(OCCN2CC(CF)C2)cc1F [Example 4, (6S,8S)-6-(2,6-difluoro-4-(2-(3-(fluoromethyl)azetidin-1-yl)ethoxy)phenyl)-8-(difluoromethyl)-7-(2-fluoro-2-methylpropyl)-6-methyl-6,7,8,9-tetrahydro-3H-pyrazolo[4,3-f]isoquinoline]	0.16	80	10
C[C@@H]1Cc2c(ccc3[nH]ncc23)[C@@H](c2ccc(OCCN3CC(CF)C3)cc2)N1CC1(F)COC1 [Example 31, (6R,8R)-6-(4-(2-(3-(fluoromethyl)azetidin-1-yl)ethoxy)phenyl)-7-((3-fluorooxetan-3-yl)methyl)-8-methyl-6,7,8,9-tetrahydro-3H-pyrazolo[4,3-f]isoquinoline]	0.2		38
C[C@@H]1Cc2c(ccc3[nH]ncc23)[C@@](C)(c2ccc(OCCN3CC(CF)C3)cc2)N1CC1(F)CC1 [Example 30, (6R,8R)-7-((1-fluorocyclopropyl)methyl)-6-(4-(2-(3-(fluoromethyl)azetidin-1-yl)ethoxy)phenyl)-6,8-dimethyl-6,7,8,9-tetrahydro-3H-pyrazolo[4,3-f]isoquinoline]	0.087		13
C[C@@H]1Cc2c(ccc3[nH]ncc23)[C@@H](c2c(F)cc(OCCN3CC(CF)C3)cc2F)N1CC(C)(C)F [Example 1, (6S,8R)-6-(2,6-difluoro-4-(2-(3-(fluoromethyl)azetidin-1-yl)ethoxy)phenyl)-7-(2-fluoro-2-methylpropyl)-8-methyl-6,7,8,9-tetrahydro-3H-pyrazolo[4,3-f]isoquinoline]	0.097		8
C[C@@H]1Cc2c(ccc3[nH]ncc23)[C@@](C)(c2c(F)cc(OCCN3CC(CF)C3)cc2F)N1CC(C)(C)F [Example 2, (6S,8R)-6-(2,6-difluoro-4-(2-(3-(fluoromethyl)azetidin-1-yl)ethoxy)phenyl)-7-(2-fluoro-2-methylpropyl)-6,8-dimethyl-6,7,8,9-tetrahydro-3H-pyrazolo[4,3-f]isoquinoline]	0.088		8
CC(C)(F)CN1C(c2c(F)cc(OCCN3CC(CF)C3)cc2F)c2ccc3[nH]ncc3c2CC1(C)C (stereo not drawn) [Example 37, 6-(2,6-difluoro-4-(2-(3-(fluoromethyl)azetidin-1-yl)ethoxy)phenyl)-7-(2-fluoro-2-methylpropyl)-8,8-dimethyl-6,7,8,9-tetrahydro-3H-pyrazolo[4,3-f]isoquinoline]	0.16		
C[C@@H]1Cc2c(ccc3[nH]ncc23)[C@@H](c2ccc(OCCN3CC(CF)C3)cn2)N1CC(C)(F)F [Example 41, (6S,8R)-7-(2,2-difluoropropyl)-6-(5-(2-(3-(fluoromethyl)azetidin-1-yl)ethoxy)pyridin-2-yl)-8-methyl-6,7,8,9-tetrahydro-3H-pyrazolo[4,3-f]isoquinoline]	0.29		
COc1cc(OCCN2CC(CF)C2)ncc1[C@@H]1c2ccc3[nH]ncc3c2C[C@@H](C)N1CC1(F)CC1 [Example 42, (6S,8R)-7-((1-fluorocyclopropyl)methyl)-6-(6-(2-(3-(fluoromethyl)azetidin-1-yl)ethoxy)-4-methoxypyridin-3-yl)-8-methyl-6,7,8,9-tetrahydro-3H-pyrazolo[4,3-f]isoquinoline]	0.59		
COCC(F)(F)CN1[C@H](c2ccc(OCCN3CC(CF)C3)cc2OC)c2ccc3[nH]ncc3c2C[C@H]1C [Example 15, (6S,8R)-7-(2,2-difluoro-3-methoxypropyl)-6-(4-(2-(3-(fluoromethyl)azetidin-1-yl)ethoxy)-2-methoxyphenyl)-8-methyl-6,7,8,9-tetrahydro-3H-pyrazolo[4,3-f]isoquinoline]	0.091		
C[C@@H]1Cc2c(ccc3[nH]ncc23)[C@@H](c2c(F)cc(OCCN3CC(CF)C3)cc2F)N1CC(F)CF (single isomer, unassigned) [Example 35]	0.26		
COc1cc(OCCN2CC(CF)C2)ccc1[C@@H]1c2ccc3[nH]ncc3c2C[C@@H](C)N1CC(C)(F)CF (single isomer, unassigned) [Example 21]	0.13		
